For experiment [1], the system named is myocardial tissue. Kind of experiment: Myocardial injury repair in rat model of isoproterenol (ISO) myocardial injury. It counts as in vivo. As for the experimental part: The rats were randomly selected and assigned into injection and control groups, with three rats in each group. The myocardial injury model was constructed by injecting an overdose of ISO at a dose of 80 mg/kg. The rats were fixed with a fixator to expose the abdomen; the rats were disinfected by wiping with alcohol cotton balls, and the amount of ISO injected was matched to their body weight, and then the rats were injected intraperitoneally for 1 week.
The rat was fixed with a fixator to keep its tail naturally down; before injection, the rat's tail was soaked in warm water for 3-4 min until the tail vein was seen clearly; then the rat's tail was wiped with an alcohol cotton ball for disinfection; then, when injecting the protein, the needle was injected at a minimal angle to the tail vein to keep it horizontal; after pushing the drug into the blood vessel, the wound was pressed with an alcohol cotton ball, and then the needle was withdrawn.
In order to fully remove the paraffin from the top of the slices, Paraffin sections of myocardial tissues were completely immersed in xylene twice, each time for 15 min; then the paraffin sections of cardiac tissues were placed into 100% ethanol solution, 95% ethanol solution, 75% ethanol solution, 50% ethanol solution and 3dH2O in turn, with a soaking time of 10 min for each gradient. The paraffin sections were removed and hematoxylin was added dropwise at the myocardial tissue in the sections for nuclear staining with a staining time of 8 min. immediately after the staining was completed, the sections were rinsed with tap water for 5 min, then differentiation solution was added dropwise at the myocardial tissue in the sections with a differentiation time of 20 s, and finally the sections were rinsed with tap water for 5 min. the sections were removed and eosin staining solution was added dropwise at the tissue with a staining time of 1 min, and finally the sections were rinsed with tap water Rinse the slices for 5 min. soak the paraffin sections according to a gradient of 50%, 75%, 95% and 100% ethanol, each for 5 min; then soak them twice in xylene for 2 min/time. Paraffin sections were removed from xylene, keeping xylene still retained on the sections; neutral gum was quickly added dropwise, and coverslips were picked up with forceps, and the coverslips were put down slowly.
The sections were soaked in xylene twice for 15 min/time; soaked sequentially according to a gradient of anhydrous ethanol, 95%, 75% and 50% alcohol solutions, each gradient for 5 min; finally the sections were soaked in triple distilled water for 5 min. equal amounts of Weigert iron hematoxylin A solution and B solution were mixed, and the mixture was added dropwise to the tissues, stained The sections were removed, and differentiation solution was added dropwise to the myocardial tissue for 20 s, and rinsed with tap water for 5 min. bluing solution was added dropwise to the tissue of the sections, and returned to blue treatment for 5 min, and rinsed with tap water for 5 min. lixin red magenta staining solution was added dropwise to the tissue of the sections, and staining time was 1 min, and rinsed with tap water for 5 min. 20% of Add phosphomolybdic acid solution dropwise on the tissue, stain for 5 min, pour off the phosphomolybdic acid solution on the section. Aniline blue staining solution was added dropwise for 5 min to re-stain the sections, and the aniline blue solution on the sections was poured off. […]

Experiment [2] deals with sciatic nerve. Nature of the experiment: Sciatic nerve injury repair in rat sciatic nerve injury (clamp) model. It counts as in vivo, SD rats. The text has this: The 8-week-old female SD rats were randomly divided into sham-operated and operated groups, with 3 rats in each group. SD rats were anesthetized by intraperitoneal injection of 10% chloral hydrate, and after successful anesthesia, the rats were fixed, and their right hind limbs were exposed by shaving with a shaver, and disinfected twice with 75% alcohol. A 3-4 cm incision was made with a scalpel at the posterior lateral femur of the right hind limb to expose the biceps femoris muscle, and the muscle was bluntly separated with surgical scissors to expose the thick sciatic nerve. The sciatic nerve was clamped vertically with a microhemostatic forceps, buckled to the third buckle, maintained for 10 s, repeated 3 times at 5 s/interval, resulting in an injury area approximately 2 mm wide, and the sciatic nerve was put back in place and sutured layer by layer. Penicillin (40,000 units/100g) was injected intraperitoneally for three consecutive days to prevent wound infection. […]
A dark box runway of 70 cm in length, 10 cm in width and 10 cm in height was made. […] The footprint length (PL), toe width (TS) and middle toe width (IT) were then measured and brought into the Bain formula for calculation.Bain formula: SFI=109.5 (ETS−NTS)/NTS−38.3 (EPL−NPL)/NPL+13.3(EIT−NIT)/NIT−8.8. […]

Consider “IGF1-24: 97 amino acids: amino-terminal 70 identical to IGF1, carboxyl-terminal 24 identical to IGFEc24 peptide, joined by three Gly linkers (SEQ ID NO: 4)”, for which, in experiment [1] (ISO+IGF1-24-treated group vs ISO-injured group, FIG. 12), the “Masson staining: area of cardiac fibrosis” value is “significantly reduced”. In experiment [1] (ISO+IGF1-24 group compared with ISO+PBS group, FIG. 10), the “HE staining of cardiac tissue: repair effect” value is listed as “the repair effect was obvious”. Also, the “rate of PH3 positive cells in myocardial tissue” value in experiment [1] (after ISO injury and IGF1-24 treatment, injury without treatment 0.1%, FIG. 13A-B) is 0.8%. In experiment [1] (after ISO injury and IGF1-24 treatment, injury without treatment 0.5%, FIG. 13A-B), the “rate of Edu positive cells in myocardial tissue” value amounted to 1.4%. Further, in experiment [1] (treatment group vs injury group, FIG. 13C), the “number of Ki67-positive cells (immunohistochemistry of heart tissue)” value is reported as “differed significantly”. Moreover, the “expression of GAP-43 in the sciatic nerve (immunofluorescence)” value in experiment [2] (after 14 days of IGF1-24 100 μg/kg intraperitoneally, significantly different from control and Injury groups, FIG. 15) is reported as “remained at a high level”. Besides, the “sciatic nerve index (SFI)” value in experiment [2] (treated group after IGF1-24 treatment, footprint analysis, Bain formula, FIG. 17) was “close to that of the uninjured group”.

Values taken from US20230073755A1, “USE OF IGF1 IN COMBINATION WITH IGFEC24 IN PREPARATION OF MEDICINE FOR PROMOTING TISSUE REPAIR AND REGENERATION” (Chongqing University, priority 2020, published 2023).
